Experimental data taken from patent US8507656B2, “Stabilized angiopoietin-2 antibodies and uses thereof” (MedImmune Limited, priority 2008, dated 2013).

How the values were obtained:
Type in all cases: in vivo
LoVo xenograft tumors = conditions: 3.19.3 10 mg/kg 2×wk i.p., 5FU 100 mg/kg/week i.p., combination of both
Protocol: (§1) The anti-tumor activity of 3.19.3 was evaluated in combination with 5-Fluoruracil (5FU) in the LoVo xenograft model of colorectal cancer. LoVo cells were cultured in flasks as routine until the cells reached sub-confluence. Cell suspensions containing approximately 3×10E6 cells were injected subcutaneously into the flank of female Swiss nude mice. When the tumor volume reached 200 mm^3, the mice were randomized in treatment groups of 8-10 mice and the treatments were initiated. 3.19.3 (10 mg/kg) in saline was injected intraperitoneally, twice per week for 2 weeks and 5-Flurouracil (100 mg/kg) was administered by intraperitoneal administration following a weekly schedule. The dimensions of each tumor and body weights were measured at least twice per week. The volume of the tumor was calculated as: Volume=Length×(Width)×0.5 (cm^3).

Calu6 xenograft tumors = conditions: 3.19.3 10 mg/kg 2×wk i.p., Docetaxel 15 mg/kg/week i.v., combination of both
Protocol: as §1, with “with Docetaxel” for “with 5-Fluoruracil (5FU)”, “the Calu6” for “the LoVo”, “of lung” for “of colorectal”, “cancer. Calu6” for “cancer. LoVo”, “2 weeks. Docetaxel (15” for “2 weeks and 5-Flurouracil (100”, “by intravenous” for “by intraperitoneal”

H460 xenograft tumors = conditions: 3.19.3 10 mg/kg 2×wk i.p., Oxaliplatin 5 mg/kg/week i.p., combination of both
Protocol: as §1, with “Oxaliplatin” for “5-Fluoruracil (5FU)”, “H460” for “LoVo”, “lung” for “colorectal”, “weeks. Oxaliplatin (5” for “weeks and 5-Flurouracil (100”

In the case of “3.19.3: fully human anti-Ang-2 monoclonal antibody, wild type control; light chain SEQ ID No. 1, heavy chain SEQ ID No. 2 [Antibody 3.19.3]”, the “% tumor growth inhibition” value (LoVo xenograft tumors) is reported as 59%, the “% tumor growth inhibition” value (Calu6 xenograft tumors) is reported as 20% and the “% tumor growth inhibition” value (H460 xenograft tumors) is reported as 67%.
